Measured values taken from publication PMC12216609, “Inhibitors of eIF1A-ribosome interaction unveil uORF-dependent regulation of translation initiation and antitumor and antiviral effects” (The EMBO Journal, 2025).
“And” between values parts separate entries of the source, which are not always exact repeats. Equal values may be shown once. Read-outs that look alike come from different tables or passages of the source.

Key:
eIF1A = molecular target: T1, eIF1A (Homo sapiens, UniProt P47813); format: binding; details: for fluorescence ratio, eIF1A: background-corrected, relative to DMSO or lowest 1Ai concentration, replicate columns
T1 construct: His-bdSUMO (cleaved yes); made in house; host or cells: E. coli BL-21

RPS10 = molecular target: T2, RPS10 (Homo sapiens, UniProt P46783); format: binding
T2 construct: made in house; host or cells: E. coli BL-21

[1] = test system: CUG/GUG vs AUG start codon luciferase reporters in HEK293T cells; assay: Near-cognate AUG starting codon fidelity reporter assay (GUG, CUG vs AUG); format: cell-based
Method: We next considered the importance of eIF1A in controlling start codon fidelity in yeast and mammalian cells (Martin-Marcos et al, [2011]; Martin-Marcos et al, [2017]; Sehrawat et al, [2019]; She et al, [2023]) and tested how inhibition of eIF1A by 1Ais affects the initiation from near-cognate AUG. The effect of 1Ais was analyzed using firefly luciferase reporters bearing either AUG (control), CUG, or GUG as the exclusive translation initiation sites. Co-transfected GFP reporter served as an internal control for transfection efficiency.
For the near-cognate AUG Starting codon fidelity reporter assay, HEK293T cells were transfected with 100 ng of the previously described luciferase reporter constructs driven either by AUG, CUG, and GUG (Tang et al, [2017]) together with GFP expressing plasmid (20 ng) as normalizing control. Luciferase and GFP levels were determined as described above.
Appendix Figure S1: (A) HEK293T cells were transfected with Luciferase reporter genes with either CUG or AUG as their exclusive starting codon. 6 hours after transfection, cells were exposed to 1Ais, and the luminescence from all constructs was measured after overnight incubation. Bars represent the ratio between luminescence from the AUG starting codon and CUG after normalization with co-transfected GFP; Error bars represent SEM, * denotes p<0.05 (T-test comparing to DMSO control), n=≥4 independent biological replicates.

[2] = test system: cap-proximal AUG GFP reporter in HEK293T cells; format: cell-based; details: GFP WB densitometry; 20 µM overnight; dmso 0.965946
Description: Translation from an AUG preceded by a very short 5'UTR (less than 30 nt) is usually inefficient and frequently bypassed, resulting in initiation from a downstream AUG, a phenomenon known as leaky scanning. […] To examine the impact of 1Ais on short 5'UTR initiation, we used a GFP reporter gene containing an AUG located 16 nt downstream from the 5' end followed by a second in-frame downstream AUG (Fig. 1F; Appendix Fig. S1B). Cells were transfected with this GFP reporter gene followed by exposure to DMSO (vehicle) and 1Ais. Initiations from upstream (US) or downstream (DS) AUGs were determined by western blot (WB) with anti-GFP antibodies and the ratio between the US and DS AUG was determined.
For the analysis of translation from very short 5'UTR and Leaky scanning, HEK293T cells were transfected with a GFP (20 ng/well) reporter gene driven by a cap-proximal and downstream AUGs (Elfakess et al, [2011]) together with a luciferase reporter gene (100 ng/well) as normalizing control and treated with 20 µM of 1Ais as described above. GFP levels were determined by Western blot (WB) (GFP antibody, Abcam #ab290) and quantified by densitometry (ImageJ) and normalized to the measured luciferase activity.
HEK293T cells were transfected with the GFP reporter gene schematically shown on the top. The first
AUG is […] from the 5’ end and the downstream AUG is in the same frame. Six hours after transfection, cells were treated with 1Ais. After overnight exposure to 1Ais, GFP expression was analyzed by WB using anti -GFP antibodies.
US/DS ratio was determined by densitometry and represents the long protein expression (upstream AUG, US) vs the […]
biological replicates. (C-D) Analysis of reporter genes mRNA levels after 1Ais treatment.

[3] = test system: IRF7 5'UTR firefly luciferase reporter in HEK293T cells;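 further: luciferase signal corrected by a co-transfected GFP reporter for transfection efficiency, read after overnight compound exposure, with Long and Short reporters differing in 5'UTR length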
[4] = raw data calculation of one experiment, GFP normalized, AUG set to 100, compound marked (20)

T1 sequence (P47813 whole entry): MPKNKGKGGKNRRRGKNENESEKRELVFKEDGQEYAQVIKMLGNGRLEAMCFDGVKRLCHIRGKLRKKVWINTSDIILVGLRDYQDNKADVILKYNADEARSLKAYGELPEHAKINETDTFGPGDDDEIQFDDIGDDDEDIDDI

SMILES: COc1ccc(C=C2CSc3ccc(Cl)cc3C2=O)cc1O [1Ai-5175]
- fluorescence ratio, eIF1A (eIF1A; 1Ai conc. 0.25 uM): 0.9293 and 0.8251
- fluorescence ratio, eIF1A (eIF1A; 1Ai conc. 0.5 uM): 0.9438 and 0.8466
- fluorescence ratio, eIF1A (eIF1A; 1Ai conc. 1 uM): 0.9705 and 0.8212
- fluorescence ratio, eIF1A (eIF1A; 1Ai conc. 2 uM): 0.5643 and 0.7297
- fluorescence ratio, eIF1A (eIF1A; 1Ai conc. 4 uM): 0.4919 and 0.7019
- fluorescence ratio, eIF1A (eIF1A; 1Ai conc. 8 uM): 0.4802 and 0.6176
- fluorescence ratio, eIF1A (eIF1A; 1Ai conc. 16 uM): 0.3895 and 0.4949
- fluorescence ratio, eIF1A (eIF1A; 1Ai conc. 32 uM): 0.3105 and 0.4413
- fluorescence ratio, eIF1A (eIF1A; 1Ai conc. 64 uM): 0.2231 and 0.3132
- fluorescence ratio, eIF1A (eIF1A; 1Ai conc. 256 uM): 0.1792 and 0.2884
- IC50 (eIF1A; eIF1A, from the titration data, read-out: IC50 (eIF1A titration block)): 6.02 µM
- IC50 (eIF1A; summary table, fluorescence binding assay, read-out: IC50 concentration (µM), WT eIF1A): 6 µM
- RPS10 fluorescence ratio to control (RPS10; 1Ai conc. 0.25 uM): 0.6015
- RPS10 fluorescence ratio to control (RPS10; 1Ai conc. 0.5 uM): 0.7077
- RPS10 fluorescence ratio to control (RPS10; 1Ai conc. 1 uM): 1.288
- RPS10 fluorescence ratio to control (RPS10; 1Ai conc. 2 uM): 1.156
- RPS10 fluorescence ratio to control (RPS10; 1Ai conc. 4 uM): 1.025
- RPS10 fluorescence ratio to control (RPS10; 1Ai conc. 8 uM): 0.4718
- RPS10 fluorescence ratio to control (RPS10; 1Ai conc. 16 uM): 0.1497
- RPS10 fluorescence ratio to control (RPS10; 1Ai conc. 32 uM): 0.1533
- RPS10 fluorescence ratio to control (RPS10; 1Ai conc. 64 uM): 0.2655
- RPS10 fluorescence ratio to control (RPS10; 1Ai conc. 256 uM): 0.2335
- IC50 (RPS10; read-out: IC50 (line under RPS10 binding data)): 6.7 µM
- IC50 (RPS10; read-out: RPS10 IC50): 6.7 µM
- IC50 (RPS10; summary table, fluorescence binding assay, read-out: IC50 concentration (µM), RPS10): 6.7 µM
- CUG vs AUG (%) ([1]; CUG start codon reporter relative to AUG reporter (AUG = 100), compound at 5uM (summary head), single-experiment calculation): 10.1681% and 8.512%
- GUG vs AUG (%) ([1]; GUG start codon reporter relative to AUG reporter (AUG = 100), compound at 5uM (summary head), single-experiment calculation): 2.289% and 2.982%
- average CUG and GUG ([1]; NUG experiment): 5.826
- average CUG and GUG relative to DMSO ([1]; NUG experiment): 1.2918
- CUG Average ([1]; NUG experiment, CUG vs AUG reporter): 9.011
- GUG Average ([1]; NUG experiment, GUG vs AUG reporter): 2.642
- NUG (Final data, Fig. 1E) ([1]; average CUG and GUG relative to DMSO, 20 µM overnight): 1.292
- GUG vs AUG data (%) ([1]; compound at 5uM, individual repeat): 2.76% and 3.14% and 2.85% and 1.82%
- GUG vs AUG (%) Average ([1]; compound at 5uM, summary average of repeats, DMSO control average […]): 2.64%
- calculation: CUG (AUG = 100) [1, 4]: 4.394
- calculation: GUG (AUG = 100) [1, 4]: 1.456
- US/DS ratio, average [2]: 1.243
- Reference vs IRF7 (Final data, Fig. 1E) ([3]; 1/Result, relative to DMSO, 20 µM): 2.369
- LONG (summary - All), normalized to DMSO ([3]; Long reporter, 5 µM, individual replicates, outliers excluded, DMSO = 1): 0.41 and 0.69 and 0.67
- SHORT (summary - All), normalized to DMSO ([3]; Short reporter, 5 µM, individual replicates, outliers excluded, DMSO = 1): 1.04 and 2.35 and 0.82
- Long: Normalized to average DMSO ([3]; data section, Long reporter, GFP-corrected, 5 µM, per experiment): 0.4067 and 0.6939 and 0.6743
- average ( long vs short ratio) ([3]; summary - All, 5 µM): 0.422
